Here are results for three compounds from US20130210846A1, “USE OF NOVEL PAN-CDK INHIBITORS FOR TREATING TUMORS” (BAYER INTELLECTUAL PROPERTY GMBH, priority 2010, published 2013).

One experiment has as its system SW480. Kind of experiment: Proliferation assay SW480. In kind it is cell-based. The note with it: Homo sapiens, 96 h; SW480, colon/rectum carcinoma; 4 days, crystal violet. The method, then:
(§1) Cultivated human tumor cells (originally obtained from ATCC, HeLa-MaTu and HeLa-MaTu-ADR, originally obtained from Epo GmbH, Berlin, Germany) were plated at a density of 1000 to 5000 cells/measuring point, depending on the growth rate of the cell line, in a 96-well multititer plate in 200 μl of growth medium (DMEM/HAMS F12, 2 mM L-glutamine, 10% fetal calf serum). After 24 hours the cells of one plate (zero-point plate) were stained with crystal violet (see below), whereas the medium of the other plates was replaced with fresh culture medium (200 μl), to which the test substances had been added at various concentrations (0 μM, and in the range 0.01-30 μM; the final concentration of the solvent dimethyl sulfoxide was 0.5%). The cells were incubated for 4 days in the presence of the test substances. Cellular proliferation was determined by staining the cells with crystal violet: the cells were fixed by adding 20 μl/measuring point of an 11% glutaraldehyde solution for 15 min at room temperature. After washing the fixed cells with water three times, the plates were dried at room temperature. The cells were stained by adding 100 μl/measuring point of a 0.1% crystal violet solution (pH adjusted to pH3 by adding acetic acid). After washing the stained cells with water three times, the plates were dried at room temperature. The dye was dissolved by adding 100 μl/measuring point of a 10% acetic acid solution. The extinction was determined photometrically at a wavelength of 595 nm. The percentage change in cell growth was calculated by standardization of the measured values to the extinction values of the zero-point plate (=0%) and the extinction of the untreated (0 μM) cells (=100%). The measured data were standardized to 0% inhibition (cell proliferation without inhibitor) and 100% inhibition (zero-point plate). The IC50 values were determined by means of a 4-parameter fit using the company's own software.
(§2) The substances were examined in the following cell lines which, in an exemplary manner, represent the stated indications: […]

A further experiment relates to Caco-2. Kind of experiment: Proliferation assay Caco-2. The settings on record: Caco-2, colon/rectum carcinoma, 4 days, crystal violet. The format is cell-based, human. In outline: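 Human tumour cells plated 1000 to 5000 cells/well, treated after 24 h with compound (0.01-30 μM, 0.5% DMSO) for 4 days. Growth by crystal violet staining read at 595 nm, normalised to zero-point plate and untreated cells; IC50 from 4-parameter fit.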

A further experiment deals with PC3. Kind of experiment: Proliferation assay PC3. The format is cell-based. The settings on record: Homo sapiens, PC-3, 96 h; PC3, prostate carcinoma; 4 days, crystal violet. Here is the method:
as §1, §2

The test system of another experiment is NCI-ADR-Res. Kind of experiment: Proliferation assay NCI-ADR-Res. The format is cell-based. The settings on record: Homo sapiens, 96 h, ovarial carcinoma, 4 days, crystal violet. The method, then: as §1, §2
The target of experiment [1] is T1, VEGF receptor tyrosine kinase-2 (VEGF-R2) (Homo sapiens, UniProt P35968).
T1 construct: GST; made in house; host or cells: baculovirus-infected insect cells (Sf9)
T1 sequence (P35968 20-1356, species assumed): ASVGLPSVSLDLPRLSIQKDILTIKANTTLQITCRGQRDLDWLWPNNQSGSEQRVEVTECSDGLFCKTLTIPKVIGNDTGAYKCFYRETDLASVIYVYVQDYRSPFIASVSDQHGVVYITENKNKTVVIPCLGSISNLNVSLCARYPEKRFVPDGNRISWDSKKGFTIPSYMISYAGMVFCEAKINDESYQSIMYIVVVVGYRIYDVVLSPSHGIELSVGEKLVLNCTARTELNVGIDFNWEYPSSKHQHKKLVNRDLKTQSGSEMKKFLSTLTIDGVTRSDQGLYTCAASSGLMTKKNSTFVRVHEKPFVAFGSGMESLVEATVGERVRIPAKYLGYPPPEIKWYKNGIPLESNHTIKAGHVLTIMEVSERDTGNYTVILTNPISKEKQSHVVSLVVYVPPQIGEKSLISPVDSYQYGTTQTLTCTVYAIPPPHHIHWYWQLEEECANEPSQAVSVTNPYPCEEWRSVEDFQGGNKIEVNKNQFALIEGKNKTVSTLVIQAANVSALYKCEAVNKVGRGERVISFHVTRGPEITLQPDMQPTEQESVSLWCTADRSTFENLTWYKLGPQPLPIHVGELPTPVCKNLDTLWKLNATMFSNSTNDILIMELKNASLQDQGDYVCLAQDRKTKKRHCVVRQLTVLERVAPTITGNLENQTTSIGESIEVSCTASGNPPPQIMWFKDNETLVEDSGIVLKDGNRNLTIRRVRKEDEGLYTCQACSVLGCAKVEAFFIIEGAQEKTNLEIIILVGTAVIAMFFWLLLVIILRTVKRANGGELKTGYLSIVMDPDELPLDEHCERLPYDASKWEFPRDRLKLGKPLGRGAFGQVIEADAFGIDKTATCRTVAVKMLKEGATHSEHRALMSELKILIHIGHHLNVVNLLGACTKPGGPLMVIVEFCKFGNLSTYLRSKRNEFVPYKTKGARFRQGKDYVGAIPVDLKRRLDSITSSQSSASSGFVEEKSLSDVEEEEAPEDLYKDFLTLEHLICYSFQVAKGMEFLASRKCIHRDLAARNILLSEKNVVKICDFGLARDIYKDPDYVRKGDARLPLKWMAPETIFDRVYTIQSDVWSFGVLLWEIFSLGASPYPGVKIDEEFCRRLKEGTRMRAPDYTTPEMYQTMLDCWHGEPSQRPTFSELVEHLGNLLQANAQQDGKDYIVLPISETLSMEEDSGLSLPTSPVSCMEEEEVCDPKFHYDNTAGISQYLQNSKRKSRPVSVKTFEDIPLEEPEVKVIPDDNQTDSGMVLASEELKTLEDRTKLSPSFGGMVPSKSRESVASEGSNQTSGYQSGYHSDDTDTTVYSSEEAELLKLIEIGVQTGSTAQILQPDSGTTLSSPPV
Kind of experiment: VEGF receptor-2 kinase assay (Assay 3). The format is biochemical. The settings on record: 8 μM ATP, poly-(Glu4Tyr), 10 min 22° C.; read-out: VEGF-R2 (Assay 3) Concentration for half-maximal inhibition of the enzyme activity, IC50.

The next experiment has as its system Caki2. Briefly: Proliferation assay Caki2. In kind it is cell-based. The note with it: Homo sapiens, CAKI-2, 96 h; Caki2, kidney carcinoma; 4 days, crystal violet. Here is the method: as §1, §2
The next experiment relates to SK-BR-3. Briefly: Proliferation assay SK-BR-3. In kind it is cell-based. The note with it: Homo sapiens, 96 h; SK-BR-3, estrogen receptor-negative mamma carcinoma; 4 days, crystal violet. The method, then:
as §1, §2

For the next experiment, the target named is T2, CDK1/CycB (Homo sapiens, UniProt P06493).
T2 construct: purchased ProQinase GmbH, Freiburg, Germany; host or cells: baculovirus-infected insect cells (Sf9)
T2 sequence (P06493 whole entry): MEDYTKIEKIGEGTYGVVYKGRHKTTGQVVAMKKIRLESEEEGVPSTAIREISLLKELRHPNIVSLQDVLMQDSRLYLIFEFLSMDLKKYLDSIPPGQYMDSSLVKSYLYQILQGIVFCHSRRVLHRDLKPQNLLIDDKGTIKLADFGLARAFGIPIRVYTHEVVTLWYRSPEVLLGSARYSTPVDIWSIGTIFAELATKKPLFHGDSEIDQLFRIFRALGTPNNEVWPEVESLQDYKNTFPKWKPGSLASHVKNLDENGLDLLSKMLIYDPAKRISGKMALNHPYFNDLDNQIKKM
T2 sequence (P14635 whole entry partner): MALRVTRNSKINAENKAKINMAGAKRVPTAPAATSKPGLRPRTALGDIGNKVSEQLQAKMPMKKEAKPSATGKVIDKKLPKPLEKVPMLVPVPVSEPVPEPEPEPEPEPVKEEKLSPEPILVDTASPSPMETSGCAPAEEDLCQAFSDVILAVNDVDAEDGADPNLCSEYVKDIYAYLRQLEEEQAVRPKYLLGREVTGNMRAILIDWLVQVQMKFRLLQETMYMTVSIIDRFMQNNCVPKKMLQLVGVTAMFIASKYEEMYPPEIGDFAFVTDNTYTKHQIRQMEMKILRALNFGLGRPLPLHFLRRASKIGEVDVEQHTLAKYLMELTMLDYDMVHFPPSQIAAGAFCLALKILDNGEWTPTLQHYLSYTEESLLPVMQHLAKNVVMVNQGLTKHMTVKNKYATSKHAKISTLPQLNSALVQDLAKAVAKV
Kind of experiment: CDK1/CycB kinase assay (Assay 1). In kind it is biochemical. The settings on record: 0.5 μM ATP, histon IIIS, 10 min 22° C.; read-out: CDK1/CycB (Assay 1) Concentration for half-maximal inhibition of the enzyme activity, IC50. Put shortly:
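Insect-cell CDK1/CycB-GST was incubated 10 min at 22 °C with compound (0.01–100 μM), 0.5 μM ATP plus 33P-γ-ATP and histone IIIS as substrate, in pH 8.0 Tris buffer. Incorporated 33P measured by filter-binding scintillation. IC50 from 4-parameter fit, normalized to no-inhibitor and no-enzyme controls.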

For a further experiment, the system named is MDA-MB 453. Briefly: Proliferation assay MDA-MB 453. The settings on record: Homo sapiens, 96 h; MDA-MB 453, estrogen receptor-negative mamma carcinoma; 4 days, crystal violet. In kind it is cell-based. The method, then:
as §1, §2

pIC50: −log10 of the molar value.

Consider `C[C@@H](O)[C@@H](C)Nc1nc(Nc2ccc(S(=N)(=O)C3CC3)cc2)ncc1C(F)(F)F` (mixture of isomers) [Example 4-SI-1, (RS)—S-Cyclopropyl-S-(4-{[4-{[(1R,2R)-2-hydroxy-1-methylpropyl]amino}-5-(trifluoromethyl)-pyrimidin-2-yl]amino}phenyl)sulfoximide], for which the pIC50 is 7.66 with SW480; 7.46 in the experiment on Caco-2 (Homo sapiens, Caco-2, 96 h); over 8.00 in the experiment on PC3; 7.43 with NCI-ADR-Res; 7.34 in experiment [1]; over 8.00 in the experiment on Caki2. Also, the values for the pIC50 in the experiment with SK-BR-3, on CDK1/CycB and with MDA-MB 453 were 7.48, 8.22 and 7.96, respectively.

`C[C@@H](O)[C@@H](C)Oc1nc(Nc2ccc(S(C)(=N)=O)cc2)ncc1C(F)(F)F` (mixture of isomers) [Example 2-SI-2, (RS)—S-(4-{[4-{[(1R,2R)-2-Hydroxy-1-methylpropyl]oxy}-5-(trifluoromethyl)pyrimidin-2-yl]-amino}phenyl)-S-methylsulfoximide] had a pIC50 in the experiment with Caco-2 of 7.62.

For the compound `C[C@@H](O)[C@@H](C)Oc1nc(Nc2ccc(S(C)(=N)=O)cc2)ncc1C(F)(F)F` (single isomer, unassigned) [Example 2-SI-2], the pIC50 in the experiment with SW480 is 7.72; with PC3, 7.57; in the experiment with NCI-ADR-Res, 7.54; in experiment [1], 6.55; in the experiment on Caki2, 7.62; in the experiment on SK-BR-3, 7.68. The pIC50 on CDK1/CycB is 8.40; in the experiment with MDA-MB 453, 7.80.
